In publication PMC3375835 (Tetrahedron letters, 2012):
Blank lines part the entries; values can stand above or below the molecule they belong to.

Tests used:
Assay type in all cases: cell-based
HIV-1NL4–3 = test: Anti-HIV activity against HIV-1NL4–3 infected MT-4 cells; conditions: for EC50 (concentration of the test sample that was effective to suppress HIV replication by 50%): '-' = No activity (footnote b); for EC50: read-out: EC50 (concentration of the test sample that was effective to suppress HIV replication by 50%), '-' = No activity (footnote b)
[1] = Cytotoxicity to mock-infected MT-4 cells; conditions: human
mock-infected MT-4 cells = test: Cytotoxicity to mock-infected MT-4 cells; conditions: read-out: CC50 (concentration of test sample that was cytotoxic to 50% of the mock-infected cells)

EC50 (concentration of the test sample that was effective to suppress HIV replication by 50%) (HIV-1NL4–3): -
SMILES: C#CCOC(=O)OC1CCC2(C)C(CCC3(C)C2CCC2C4C(C(=C)C)CCC4(CO)CCC23C)C1(C)C (stereo not drawn) [Compound 5]

EC50 (concentration of the test sample that was effective to suppress HIV replication by 50%) (HIV-1NL4–3): -
SMILES: C#CCOC1CCC2(C)C(CCC3(C)C2CCC2C4C(C(=C)C)CCC4(COC(=O)CC(C)(C)C(=O)O)CCC23C)C1(C)C (stereo not drawn) [Compound 7]

EC50 (concentration of the test sample that was effective to suppress HIV replication by 50%) (HIV-1NL4–3): inactive and -
SMILES: C=C(C)C1CCC2(CO[Si](C)(C)C(C)(C)C)CCC3(C)C(CCC4C5(C)CCC(OC(=O)OCc6cn(C7CC(n8cc(C)c(=O)[nH]c8=O)OC7CO)nn6)C(C)(C)C5CCC43C)C12 (stereo not drawn) [Compound 9]

EC50 (HIV-1NL4–3): 0.35 µM
SMILES: C=C(C)C1CCC2(COC(=O)CC(C)(C)C(=O)O)CCC3(C)C(CCC4C5(C)CCC(OCc6cn(C7CC(n8cc(C)c(=O)[nH]c8=O)OC7CO)nn6)C(C)(C)C5CCC43C)C12 (stereo not drawn) [Compound 13]
CC50 (mock-infected MT-4 cells): > 4.6 µM

EC50 (HIV-1NL4–3): 0.067 µM
SMILES: C#CCOC(=O)[C@]12CC[C@@H](C(=C)C)[C@@H]1[C@H]1CC[C@@H]3[C@@]4(C)CC[C@H](OC(=O)CC(C)(C)C(=O)O)C(C)(C)[C@@H]4CC[C@@]3(C)[C@]1(C)CC2 [Compound 15]
CC50 (mock-infected MT-4 cells): 15.3 µM

EC50 (HIV-1NL4–3): 0.1 µM
SMILES: C=C(C)[C@@H]1CC[C@]2(C(=O)OCc3cn([C@H]4C[C@H](n5cc(C)c(=O)[nH]c5=O)O[C@@H]4CO)nn3)CC[C@]3(C)[C@H](CC[C@@H]4[C@@]5(C)CC[C@H](OC(=O)CC(C)(C)C(=O)O)C(C)(C)[C@@H]5CC[C@]43C)[C@@H]12 [Compound 16]
CC50 (mock-infected MT-4 cells): 11.2 µM

More lines, now with the values behind:

SMILES: Cc1cn([C@H]2C[C@H](N=[N+]=[N-])[C@@H](CO)O2)c(=O)[nH]c1=O [AZT, 3′-azido-3′-deoxythymidine, reference compound]
SI (Selectivity index = CC50/EC50) (HIV-1NL4–3; CC50/EC50): 1385 | CC50 [1]: 140 µM

SMILES: C=C(C)[C@@H]1CC[C@]2(C(=O)O)CC[C@]3(C)[C@H](CC[C@@H]4[C@@]5(C)CC[C@H](OC(=O)CC(C)(C)C(=O)O)C(C)(C)[C@@H]5CC[C@]43C)[C@@H]12 [Bevirimat (14), 3-O-(3′,3′-dimethylsuccinyl)betulinic acid, reference compound]
CC50 [1]: 13.2 µM

SMILES: C#CCOC1CCC2(C)C(CCC3(C)C2CCC2C4C(C(=C)C)CCC4(CO[Si](C)(C)C(C)(C)C)CCC23C)C1(C)C (stereo not drawn) [Compound 2]
EC50 (concentration of the test sample that was effective to suppress HIV replication by 50%) (HIV-1NL4–3): - ^b

SMILES: C#CCOC(=O)OC1CCC2(C)C(CCC3(C)C2CCC2C4C(C(=C)C)CCC4(CO[Si](C)(C)C(C)(C)C)CCC23C)C1(C)C (stereo not drawn) [Compound 3]
EC50 (concentration of the test sample that was effective to suppress HIV replication by 50%) (HIV-1NL4–3): -

SMILES: C#CCOC1CCC2(C)C(CCC3(C)C2CCC2C4C(C(=C)C)CCC4(CO)CCC23C)C1(C)C (stereo not drawn) [Compound 4]
EC50 (concentration of the test sample that was effective to suppress HIV replication by 50%) (HIV-1NL4–3): -
